The subject of test [1] is Human neonate-derived fibroblasts. The experiment in a line: Measurement of collagen synthesis-promoting activity on human fibroblasts (3H-glycine incorporation). The following applies: 300 µmol/l. The test is classed as cell-based. As for the experimental part: 201-271, Kodansha Scientific (1986).
Human neonate-derived fibroblasts (Sanko Junyaku Co., Ltd.) were suspended in DMEM containing 10% fetal bovine serum [Virology, 8, 396 (1959)] and cultured at 37°C in 5% CO2 to the stationary phase. To the resulting culture were added ^3H-labeled glycine and a test substance, followed by further culturing for 72 hours. After 500 µmol/l phenylmethanesulfonyl fluoride (PMSF) was added to the obtained culture, the cells and the medium were collected, followed by disruption with a sonicator to extract proteins. To the extract were added 100 µmol/l bovine serum albumin (BSA) and 10% trichloroacetic acid (TCA), and the resulting mixture was centrifuged at 3000 rpm for 5 minutes to collect the precipitate. […]
After the reaction mixture was separated by ultrafiltration (molecular weight: 10,000), the radioactivity of the protein fraction in the filtrate (CDP) was measured as the amount of newly synthesized collagen. Then, the radioactivity of the protein fraction which was not filtered (NCDP) was measured, and the collagen synthesis ratio was calculated according to equation 2. The relative collagen synthesis-promoting activity (the change in collagen synthesis) was calculated according to equation 3 as the relative value of the collagen synthesis ratio in the presence of a test substance based on the control. […]

In a further test the test system is collagenase I (MMP-1). The conditions noted are these: 37°C, 4 hours. As for the experimental part:
Measurement of collagenase-inhibiting activity was carried out in the following manner according to the method described in Development and Application of Simple Microassay for Collagenase Activity; Nagai, et al., Inflammation, Vol. 4, p. 123-130, Nihon Igakukan (1984).
To 25 µl of a neutralization buffer (0.1 mol/l Tris hydrochloride, pH 7.5, 0.4 mol/l NaCl, 10 mmol/l CaCl2 and 0.04% NaN3) was added 25 µl of fluorescein isothiocyanate (FITC)-labeled collagen I (Cosmo Bio Co.) To the resulting mixture were further added 50 µl of collagenase I (MMP-1) (Cosmo Bio Co.) and a test sample dissolved in 10 µl of the neutralization buffer, followed by reaction at 37°C for 4 hours. To the reaction mixture was added 5 µl of a reaction terminating solution [80 mmol/l o-phenanthroline/50% (v/v) aqueous ethanol] to stop the reaction. To the resulting mixture was added 100 µl of a twice diluted neutralization buffer and the resulting mixture was allowed to stand at 35°C for 60 minutes. After cooling on ice for 5 minutes, 200 µl of 70% (v/v) aqueous ethanol was added to the mixture, followed by vigorous stirring for 5 minutes. The resulting mixture was centrifuged at 15,000 rpm at 4°C for 10 minutes to obtain the supernatant. By using a spectrophotofluorometer, the supernatant was irradiated with excitation light at 495 nm and emission light at 520 nm (A) was measured to determine the amount of decomposed collagen. The collagenase-inhibiting activity was calculated according to equation 4 by using data (B) obtained when purified water was employed in place of collagenase I and data (C) obtained when a neutralization buffer was employed in place of the test sample. Collagenase-inhibiting activity(%) = [(A)-(B)]/[(C)-(B)] × 100 [formula]

Where two headings read alike, the source gives them in different places.

Turning to `Oc1cc(O)c2c(c1)O[C@H](c1ccc(O)c(O)c1)[C@H](O)[C@H]2c1c(O)cc(O)c2c1O[C@H](c1ccc(O)c(O)c1)[C@H](O)C2` [PB2, epicatechin-(4β→8)-epicatechin], in test [1] (after 72 hours of culturing, control = 100), the “Relative collagen synthesis-promoting activity (%)” value amounted to 120.8%. Moreover, in test [1] (result in words, compared with control (=100%)), the “amount of collagen synthesized” value is on record as “increased”. Moreover, the results for the “Collagenase-inhibiting activity (%)” value with collagenase I (MMP-1) (100 µmol/l) and in the test on collagenase I (MMP-1) (1 mmol/l) were 69.4% and 100%, respectively.

Regarding `Oc1cc(O)c2c(c1)O[C@H](c1ccc(O)c(O)c1)[C@H](O)[C@H]2c1c(O)cc(O)c2c1O[C@H](c1ccc(O)c(O)c1)[C@H](O)[C@H]2c1c(O)cc(O)c2c1O[C@H](c1ccc(O)c(O)c1)[C@H](O)C2` [PC1, epicatechin-(4β→ 8)-epicatechin-(4β→8)-epicatechin], the “Collagenase-inhibiting activity (%)” value in the test on collagenase I (MMP-1) (1 µmol/l) is reported as 17%; in the test with collagenase I (MMP-1) (10 µmol/l), 37%; in the test with collagenase I (MMP-1) (100 µmol/l), 100%.
